For test [1], the target named is T1, human bradykinin 1 receptor (B1R) (Homo sapiens, UniProt P46663).
T1 construct: expressed in transfected cells; host or cells: CHO K1 cells
T1 sequence (P46663 1-353): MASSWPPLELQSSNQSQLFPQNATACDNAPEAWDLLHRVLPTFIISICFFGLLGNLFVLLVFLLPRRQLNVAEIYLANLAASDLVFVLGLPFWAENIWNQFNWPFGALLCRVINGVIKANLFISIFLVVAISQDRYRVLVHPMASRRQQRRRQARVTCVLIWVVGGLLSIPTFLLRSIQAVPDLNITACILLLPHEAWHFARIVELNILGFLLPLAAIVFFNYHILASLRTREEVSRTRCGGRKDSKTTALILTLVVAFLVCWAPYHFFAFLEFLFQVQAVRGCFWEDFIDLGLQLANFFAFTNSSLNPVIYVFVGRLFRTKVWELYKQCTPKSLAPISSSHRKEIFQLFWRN
The experiment in a line: Functional investigation on the human bradykinin 1 receptor (B1R), Ca2+ FLIPR assay in CHO K1 hB1R cells. In kind it is cell-based. Particulars: CHO-K1, B1R antagonism human; test substance 10 μM; Ca2+ FLIPR, CHO K1 hB1R cells; read-out: B1R Ant. h [10 μM] % Inhibition. The method, boiled down: (§1)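 Stably transfected CHO K1 cells loaded with Fluo-4; FLIPR Ca2+ fluorescence peak (ex 488/em 540 nm). Compound added first (agonism vs Lys-Des-Arg9-bradykinin ≥50 nM human, Des-Arg9-bradykinin 10 μM rat), then after 10-20 min agonist at EC80; antagonism as % inhibition, IC50 from concentration series, n=2-3, N≥2.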

Test [2] has as its target T2, bradykinin 1 receptor (B1R) of the rat (Rattus norvegicus, UniProt P97583).
T2 construct: expressed in transfected cells; host or cells: CHO K1 cells
T2 sequence (P97583 1-337): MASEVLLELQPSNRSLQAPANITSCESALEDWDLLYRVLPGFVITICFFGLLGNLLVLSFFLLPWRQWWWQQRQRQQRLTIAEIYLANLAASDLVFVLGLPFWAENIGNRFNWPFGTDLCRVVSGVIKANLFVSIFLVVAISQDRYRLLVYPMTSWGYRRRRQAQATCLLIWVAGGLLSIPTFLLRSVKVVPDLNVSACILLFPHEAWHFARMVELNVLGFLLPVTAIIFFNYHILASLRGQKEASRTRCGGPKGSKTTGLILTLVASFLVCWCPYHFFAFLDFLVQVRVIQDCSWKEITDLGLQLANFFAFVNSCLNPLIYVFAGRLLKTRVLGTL
The experiment in a line: Functional investigation on the rat bradykinin 1 receptor (B1R), Ca2+ FLIPR assay in CHO K1 rB1R cells. Type of test: cell-based. The note with it: CHO-K1, B1R antagonism rat; test substance 10 μM; Ca2+ FLIPR, CHO K1 rB1R cells; read-out: B1R Ant. r [10 μM] % Inhibition. The method, boiled down:
as §1

From US8106055B2, “Substituted amide compounds” (Gruenenthal GmbH, priority 2007, dated 2012) come the findings set out here.

In general, inhibition refers to the drop in the measured response relative to a control, in per cent.

For the compound `CN(C)C(c1cccs1)C1CCC(CNC(=O)COC2CCCCC2N(C)S(=O)(=O)c2ccc(Cl)c(Cl)c2)CC1` (stereo not drawn) [Example 31, 2-(2-(3,4-dichloro-N-methylphenylsulfonamido)cyclohexyloxy)-N-((4-((dimethylamino)(thiophen-2-yl)methyl)cyclohexyl)methyl)acetamide], the results for the inhibition at 10 µM in test [1] and in test [2] were 10% and 11%, respectively.

As to `CN(C)C(c1cccs1)C1CCC(CCNC(=O)COCCN(C)S(=O)(=O)c2cccc(C(F)(F)F)c2)CC1` (stereo not drawn) [Example 32, N-(2-(4-((dimethylamino)(thiophen-2-yl)methyl)cyclohexyl)ethyl)-2-(2-(N-methyl-3-(trifluoromethyl)phenylsulfonamido)ethoxy)acetamide], the inhibition at 10 µM was determined as 32% in test [1] and 14% in test [2].

As to `CN(C)C(c1ccccc1)C1CCC(NC(=O)COCCN(C)S(=O)(=O)c2ccc(Cl)cc2Cl)CC1` (stereo not drawn) [Example 33, 2-(2-(2,4-dichloro-N-methylphenylsulfonamido)ethoxy)-N-(4-((dimethylamino)(phenyl)methyl)cyclohexyl)acetamide], the inhibition at 10 µM in test [1] was determined as 77%; in test [2], 9%.

As to `CN(C)C(c1ccccc1)C1CCC(NC(=O)COCCN(C)S(=O)(=O)c2c(F)c(F)c(F)c(F)c2F)CC1` (stereo not drawn) [Example 136, N-(4-((dimethylamino)(phenyl)methyl)cyclohexyl)-2-(2-(2,3,4,5,6-pentafluoro-N-methylphenylsulfonamido)ethoxy)acetamide], the results for the inhibition at 10 µM in test [1] and in test [2] were 87% and -2%, respectively.

Consider `COc1cc(C)c(S(=O)(=O)N(C)CCOCC(=O)NCC2CCC(C(c3ccccc3)N(C)C)CC2)c(C)c1` (stereo not drawn) [Example 137, N-((4-((dimethylamino)(phenyl)methyl)cyclohexyl)methyl)-2-(2-(4-methoxy-N,2,6-trimethylphenylsulfonamido)ethoxy)acetamide], for which the inhibition at 10 µM in test [1] came to 102%; in test [2], 100%.

Take `CN(C)C(c1cccs1)C1CCC(CCNC(=O)COC2CCN(S(=O)(=O)c3ccc(F)cc3)C2)CC1` (stereo not drawn) [Example 138, N-(2-(4-((dimethylamino)(thiophen-2-yl)methyl)cyclohexyl)ethyl)-2-(1-(4-fluorophenylsulfonyl)pyrrolidin-3-yloxy)acetamide]: the inhibition at 10 µM in test [1] was found to be 2%; in test [2], 30%.

For the compound `CN(C)C(c1cccc(F)c1)C1CCC(NC(=O)COC2CCN(S(=O)(=O)c3cccc(C(F)(F)F)c3)C2)CC1` (stereo not drawn) [Example 139, N-(4-((dimethylamino)(3-fluorophenyl)methyl)cyclohexyl)-2-(1-(3-(trifluoromethyl)phenylsulfonyl)pyrrolidin-3-yloxy)acetamide], the inhibition at 10 µM in test [1] is -5%; in test [2], 21%.

As to `Cc1cc(C)c(S(=O)(=O)N2CCC(OCC(=O)NC3CCC(C(c4cccc(F)c4)N(C)C)CC3)C2)c(C)c1` (stereo not drawn) [Example 140, N-(4-((dimethylamino)(3-fluorophenyl)methyl)cyclohexyl)-2-(1-(mesitylsulfonyl)pyrrolidin-3-yloxy)acetamide], the inhibition at 10 µM in test [1] amounted to 43%; in test [2] it was 30%.

Consider `Cc1cc(C)c(S(=O)(=O)N2CCC(OCC(=O)NCC3CCC(C(c4cccc(F)c4)N(C)C)CC3)C2)c(C)c1` (stereo not drawn) [Example 141, N-((4-((dimethylamino)(3-fluorophenyl)methyl)cyclohexyl)methyl)-2-(1-(mesitylsulfonyl)pyrrolidin-3-yloxy)acetamide], for which the inhibition at 10 µM in test [1] came to 54%; in test [2], 26%.

As for `COc1ccc(S(=O)(=O)N(C)CCOCC(=O)NCC2CCC(C(c3cccs3)N(C)C)CC2)cc1` (stereo not drawn) [Example 142, N-((4-((dimethylamino)(thiophen-2-yl)methyl)cyclohexyl)methyl)-2-(2-(4-methoxy-N-methylphenylsulfonamido)ethoxy)acetamide], the inhibition at 10 µM in test [1] worked out at 50%; in test [2] it was 41%.

For the compound `COc1cc(C)c(S(=O)(=O)N2CCC(OCC(=O)NCC3CCC(C(c4ccccc4)N(C)C)CC3)CC2)c(C)c1C` (stereo not drawn) [Example 143, N-((4-((dimethylamino)(phenyl)methyl)cyclohexyl)methyl)-2-(1-(4-methoxy-2,3,6-trimethylphenylsulfonyl)piperidin-4-yloxy)acetamide], the inhibition at 10 µM in test [1] is 11%; in test [2], 19%.

Take `COc1cc(C)c(S(=O)(=O)N2CCCC(OCC(=O)NC3CCC(C(c4cccs4)N(C)C)CC3)C2)c(C)c1C` (stereo not drawn) [Example 144, N-(4-((dimethylamino)(thiophen-2-yl)methyl)cyclohexyl)-2-(1-(4-methoxy-2,3,6-trimethylphenylsulfonyl)piperidin-3-yloxy)acetamide]: the inhibition at 10 µM was determined as 20% in test [1] and 4% in test [2].

On to `COc1cc(C)c(S(=O)(=O)N2CCCC(OCC(=O)NCC3CCC(C(c4cccc(F)c4)N(C)C)CC3)C2)c(C)c1C` (stereo not drawn) [Example 145, N-((4-((dimethylamino)(3-fluorophenyl)methyl)cyclohexyl)methyl)-2-(1-(4-methoxy-2,3,6-trimethylphenylsulfonyl)piperidin-3-yloxy)acetamide], for which the values for the inhibition at 10 µM in test [1] and in test [2] were 12% and 33%, respectively.

Regarding `COc1cc(C)c(S(=O)(=O)N2CCC(CCOCC(=O)NCC3CCC(C(c4ccccc4)N(C)C)CC3)CC2)c(C)c1C` (stereo not drawn) [Example 146, N-((4-((dimethylamino)(phenyl)methyl)cyclohexyl)methyl)-2-(2-(1-(4-methoxy-2,3,6-trimethylphenylsulfonyl)piperidin-4-yl)ethoxy)acetamide], the inhibition at 10 µM worked out at 23% in test [1] and 26% in test [2].

As to `CN(C)C(c1cccc(F)c1)C1CCC(CCNC(=O)COCC2CCCCN2S(=O)(=O)c2ccc(Cl)c(Cl)c2)CC1` (stereo not drawn) [Example 147, 2-((1-(3,4-dichlorophenylsulfonyl)piperidin-2-yl)methoxy)-N-(2-(4-((dimethylamino)(3-fluorophenyl)methyl)cyclohexyl)ethyl)acetamide], the inhibition at 10 µM in test [1] was found to be 52%; in test [2], 27%.

On to `COc1cc(C)c(S(=O)(=O)N(CCOCC(=O)NCC2CCC(C(c3ccccc3)N(C)C)CC2)Cc2ccccc2)c(C)c1` (stereo not drawn) [Example 148, 2-(2-(N-benzyl-4-methoxy-2,6-dimethylphenylsulfonamido)ethoxy)-N-((4-((dimethylamino)(phenyl)methyl)cyclohexyl)methyl)acetamide], for which the inhibition at 10 µM in test [1] was 92%; in test [2], 46%.

As to `COc1cc(C)c(S(=O)(=O)N(CCOCC(=O)NCCC2CCC(C(c3cccs3)N(C)C)CC2)Cc2ccccc2)c(C)c1` (stereo not drawn) [Example 149, 2-(2-(N-benzyl-4-methoxy-2,6-dimethylphenylsulfonamido)ethoxy)-N-(2-(4-((dimethylamino) (thiophen-2-yl)methyl)cyclohexyl)ethyl)acetamide], the inhibition at 10 µM in test [1] turned out to be 72%; in test [2], 10%.

On to `COc1ccc(S(=O)(=O)N2CCCCC2COCC(=O)NCC2CCC(C(c3ccccc3)N(C)C)CC2)cc1OC` (stereo not drawn) [Example 150, 2-((1-(3,4-Dimethoxyphenylsulfonyl)piperidin-2-yl)methoxy)-N-((4-((dimethylamino)(phenyl)methyl)cyclohexyl)methyl)acetamide], for which the inhibition at 10 µM in test [1] came to 4%; in test [2], 10%.

As to `COc1ccc(S(=O)(=O)N2CCCCC2COCC(=O)NCC2CCC(C(c3cccc(F)c3)N(C)C)CC2)c(OC)c1` (stereo not drawn) [Example 151, 2-((1-(2,4-dimethoxyphenylsulfonyl)piperidin-2-yl)methoxy)-N-((4-((dimethylamino)(3-fluorophenyl)methyl)cyclohexyl)methyl)acetamide], the inhibition at 10 µM stood at 24% in test [1] and 23% in test [2].

Take `CN(C)C(c1cccs1)C1CCC(NC(=O)COCCN(C)S(=O)(=O)c2cccc(C(F)(F)F)c2)CC1` (stereo not drawn) [Example 152, N-(4-((dimethylamino)(thiophen-2-yl)methyl)cyclohexyl)-2-(2-(N-methyl-3-(trifluoromethyl)phenylsulfonamido)ethoxy)acetamide]: the inhibition at 10 µM was 16% in test [1] and 4% in test [2].

As for `COc1ccc(S(=O)(=O)N2CCC(OCC(=O)NC3CCC(C(c4cccs4)N(C)C)CC3)C2)cc1OC` (stereo not drawn) [Example 155, 2-(1-(3,4-dimethoxyphenylsulfonyl)pyrrolidin-3-yloxy)-N-(4-((dimethylamino)(thiophen-2-yl)methyl)cyclohexyl)acetamide], the figures for the inhibition at 10 µM in test [1] and in test [2] were -8% and 1%, respectively.
